Here are results for 1 molecule from patent publication US12630506B2, “Direct thrombin inhibitors and methods of use thereof” (Baylor College of Medicine, priority 2020, dated 2026).

The test addresses Thrombin (Homo sapiens, UniProt P00734). Briefly: Thrombin inhibition in vitro (Kiapp). Format: biochemical. How it is done:
The inhibitory potency of Compound 1 on thrombin was tested in vitro.

In the case of `CNC(=O)[C@@H]1CN(C(=O)[C@H](Cc2ccccc2CNC(=N)N)NC(=O)N(C)[C@H]2CCOc3ccccc32)C[C@H]1c1ccc(OC)cc1` [Compound 1], where the note is “in vitro, FIG. 1, read-out: inhibition constant (thrombin)”, the Ki is 1 nM. Also, the “potency relative to argatroban (thrombin inhibition)” value (ratio of inhibition constants vs argatroban) was “about 10 fold”.
